Activity calls are given as the source filed them. The calls are words filed in the database; no cut-off is given here.
Experiments:
[1] = tested on: Plasmodium falciparum; assay: Antiplasmodial activity against Plasmodium falciparum 3D7 infected in red blood cells assessed as parasitic growth inhibition incubated for 72 hrs by SYBR Green I staining based analysis; assay type: functional, organism-based; conditions: for IC50: 3D7, 72 h
[2] = Cytotoxicity against human HFF cells assessed as reduction in cell viability incubated for 72 hrs by CCK-8 assay; assay type: toxicity, cell-based
[3] = Selectivity index, ratio of CC50 for human HFF cells to IC50 for Plasmodium falciparum 3D7; assay type: toxicity, cell-based; conditions: read-out: Selectivity Index

Row | Compound | Activity [1] | IC50 [1] | CC50 at 72 h [2] | selectivity ratio [3]
1 | COc1c(O)cc2c(c1OC)O[C@H]1c3ccc(O)cc3OC[C@@H]21 | inactive |  |  | 
2 | Oc1ccccc1-c1cnc(-c2ccccc2)o1 |  | 4.6 µM | > 100 µM | > 18.8
3 | COC1=C(OC)C(=O)C([C@@H]2COc3cc(O)ccc3C2)=CC1=O |  | 5.8 µM | 13.7 µM | 2.3
4 | COc1c(O)cc([C@@H]2COc3cc(O)ccc3C2)c(O)c1OC |  | 6.2 µM | 5.6 µM | 0.9
5 | COc1ccc([C@@H]2COc3cc(O)ccc3C2)c(O)c1OC | inactive |  |  | 
6 | COc1cc([C@@H]2COc3cc(O)ccc3C2)c(O)c(OC)c1OC | inactive |  |  | 
7 | Oc1ccc(O)c(-c2cnc(-c3ccccc3)o2)c1 |  | 5.5 µM | 69.3 µM | 9.4
8 | c1ccc(COc2ccc(-c3ncc(-c4ccccc4OCc4ccccc4)o3)cc2)cc1 |  | 4.8 µM | 72 µM | 14.8
9 | COc1ccc2c(c1OC)O[C@H]1c3ccc(O)cc3OC[C@@H]21 | inactive |  |  | 
10 | Oc1cccc(-c2cnc(-c3ccccc3)o2)c1O |  | 3.1 µM | 8.5 µM | 2.7
11 | C[C@@H]1CC[C@H]2[C@@H](C)C(=O)O[C@@H]3O[C@@]4(C)CC[C@@H]1[C@]32OO4 [ARTEMISININ] |  | 0.025 µM | > 200 µM | > 7890
12 | COc1ccc([C@@H]2COc3cc(O)ccc3C2)c(OC)c1O | inactive |  |  | 
